Assays:
Hela cells = assay: Hela tumor mass growth in nude mice (tumor weight, inhibition rate); type: in vivo, Balb/c nude mice; settings: i.v. twice every week, 10 times, 8-oxodGTP 500 μg/kg/time, 5-FU 15 mg/kg/time
Procedure: 5×10^6 Hela cells (200 μl) were inoculated subcutaneously into the armpit of nude mice. After growing to a certain size, the tumor mass was reinoculated subcutaneously into the armpit of 24 nude mice, which were then randomly grouped into the 5-FU positive control group, the blank carrier control group, and the 8-oxodGTP group, and on the second day after the second inoculation, these nude mice were dosed intravenously. The 5-FU group was injected at a dose of 15 mg/kg/time, the 8-oxodGTP group was injected at a dose of 500 μg/kg/time, and the carrier control group was injected at an equal volume of blank carrier reagents. The injections were performed twice every week, for a total of 10 times. After the injections, the tumor mass was taken and weighed, so as to calculate the inhibition rate (inhibition rate=(1-T experimental group/C control group)×100%).

tumor cells = settings: cited from earlier work
[1] = system: melanomas, SW480 colorectal cancer and MCF7 breast cancer; settings: cited from earlier work

Structure (SMILES) | Tumor weight (Hela cells) [mg] | Inhibition rate (Hela cells; vs blank carrier group) [%] | Effect of MTH1 inhibition on tumor cells (tumor cells) | Effect in nude mice transplantation experiments [1]
O=c1[nH]cc(F)c(=O)[nH]1 [5-FU, 5-fluorouracil] | 988 ± 436.94 | 18 | – | –
CNc1cc(-c2cccc(Cl)c2Cl)nc(N)n1 [TH287] | – | – | selectively kill tumor cells | –
Nc1nc(NC2CC2)cc(-c2cccc(Cl)c2Cl)n1 [TH588] | – | – | selectively kill tumor cells | therapeutic effects

Source: patent US10335427B2, “Tumor prevention and treatment drug and applications thereof” (priority 2016, dated 2019)
